Reference: ChEMBL document CHEMBL1201862, “PubChem BioAssay data set” (2004)
Active and inactive are the calls of the source.

Experiments:
[1] = target: Disintegrin and metalloproteinase domain-containing protein 17 (Homo sapiens, UniProt P78536); experiment: exosite inhibitors of ADAM17, dose response, biochemical (AID 743260)
[2] = ADAM10 protease inhibitors, dose response, selectivity assay for ADAM17 exosite inhibitor project, biochemical, FRET peptide substrate, recombinant human ADAM10 (AID 743259);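 note: ADAM10 enzyme cleaving a FRET peptide substrate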
[3] = miR-122 activators in hepatoma reporter cells, dose response, cell-based, Huh7 psiCHECK-miR122, Renilla luciferase, cherry-picked (AID 651956); assay type: functional;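 note: huh7 hepatoma cells stably carrying a psiCHECK-2 miR-122 sensor plasmid; renilla luciferase signal reporting endogenous miR-122 activity after 48 h compound exposure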
[4] = HEK293T cytotoxicity, dose response, cytotoxicity control for miR-122 modulator project, cell-based, activator set, cherry-pick (AID 720690); assay type: functional;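 note: HEK293T human cells scored for general mammalian cytotoxicity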
[5] = HEK293 cell cytotoxicity, dose response, cytotoxicity control, cherry-picks, set 5 (AID 1053117); assay type: functional, cell-based
[6] = A549 cell cytotoxicity, dose response, cytotoxicity control, cherry-picks, 26 µM top dose (AID 1053119); assay type: functional, cell-based
[7] = target: T1, Replicative DNA helicase DnaB (Mycobacterium tuberculosis, UniProt P9WMR3); experiment: DnaB intein splicing inhibitors, dose response, biochemical, cell-free fluorescence (AID 449749); assay type: functional
T1 sequence (P9WMR3 whole entry): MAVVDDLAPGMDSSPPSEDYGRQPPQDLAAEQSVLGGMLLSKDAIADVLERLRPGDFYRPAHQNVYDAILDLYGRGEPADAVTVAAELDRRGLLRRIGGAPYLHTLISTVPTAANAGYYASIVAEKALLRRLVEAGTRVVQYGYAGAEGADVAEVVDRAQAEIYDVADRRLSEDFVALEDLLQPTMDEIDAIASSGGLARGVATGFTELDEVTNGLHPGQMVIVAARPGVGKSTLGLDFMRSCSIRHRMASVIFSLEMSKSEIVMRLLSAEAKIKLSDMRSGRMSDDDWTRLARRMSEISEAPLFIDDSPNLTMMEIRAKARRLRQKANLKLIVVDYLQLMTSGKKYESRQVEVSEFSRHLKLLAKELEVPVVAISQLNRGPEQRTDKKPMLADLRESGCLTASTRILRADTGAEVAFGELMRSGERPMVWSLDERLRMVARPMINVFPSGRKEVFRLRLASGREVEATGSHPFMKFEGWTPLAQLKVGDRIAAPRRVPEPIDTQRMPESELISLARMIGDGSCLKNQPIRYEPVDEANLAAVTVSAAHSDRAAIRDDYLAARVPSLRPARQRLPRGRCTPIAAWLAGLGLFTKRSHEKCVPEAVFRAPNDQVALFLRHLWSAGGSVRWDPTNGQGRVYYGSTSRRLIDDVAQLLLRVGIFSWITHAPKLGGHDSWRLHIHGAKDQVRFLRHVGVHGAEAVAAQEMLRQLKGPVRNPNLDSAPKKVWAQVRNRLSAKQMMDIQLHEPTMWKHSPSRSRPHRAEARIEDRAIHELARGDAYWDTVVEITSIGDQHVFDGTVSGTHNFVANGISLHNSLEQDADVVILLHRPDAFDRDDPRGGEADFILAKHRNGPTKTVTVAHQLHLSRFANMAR

[8] = target: T2, Protein RecA (Mycobacterium tuberculosis, UniProt P9WHJ3); experiment: Fluorescence Cell-Free Homogeneous Dose Retest to Identify Inhibitors of RecA-Intein Splicing Activity. [Related pubchem assays (depositor defined):AID2097, AID2223, AID489010, AID492950]; assay type: functional
T2 sequence (P9WHJ3 whole entry): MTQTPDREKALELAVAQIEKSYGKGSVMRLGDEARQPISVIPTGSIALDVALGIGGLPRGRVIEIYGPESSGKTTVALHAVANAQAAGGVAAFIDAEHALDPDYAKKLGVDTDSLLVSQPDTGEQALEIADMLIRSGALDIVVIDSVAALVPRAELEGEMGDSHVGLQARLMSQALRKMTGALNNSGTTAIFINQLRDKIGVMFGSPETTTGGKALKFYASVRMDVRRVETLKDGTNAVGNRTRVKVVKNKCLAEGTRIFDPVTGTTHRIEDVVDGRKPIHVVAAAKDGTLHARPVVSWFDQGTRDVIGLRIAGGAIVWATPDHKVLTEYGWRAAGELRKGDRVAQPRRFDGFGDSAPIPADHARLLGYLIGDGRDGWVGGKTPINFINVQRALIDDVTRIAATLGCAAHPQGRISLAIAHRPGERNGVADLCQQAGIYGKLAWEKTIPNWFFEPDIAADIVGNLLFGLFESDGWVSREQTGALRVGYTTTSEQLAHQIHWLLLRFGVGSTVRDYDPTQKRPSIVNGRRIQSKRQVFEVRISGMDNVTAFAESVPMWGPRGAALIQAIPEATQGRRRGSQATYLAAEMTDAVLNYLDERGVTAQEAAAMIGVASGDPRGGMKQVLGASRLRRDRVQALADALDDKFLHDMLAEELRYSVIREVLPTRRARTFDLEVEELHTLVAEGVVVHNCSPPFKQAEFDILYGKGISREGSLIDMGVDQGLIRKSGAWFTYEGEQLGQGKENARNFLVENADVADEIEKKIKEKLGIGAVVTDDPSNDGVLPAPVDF

[9] = target: Dual specificity tyrosine-phosphorylation-regulated kinase 1A (Rattus norvegicus, UniProt Q63470); assay type: biochemical, Homo sapiens
[10] = test system: P388/ADR; experiment: cells; assay type: functional; conditions: Mus musculus
[11] = test system: SN12K1; experiment: cells; assay type: functional; conditions: Homo sapiens
[12] = test system: P388; experiment: cells; assay type: functional; conditions: Mus musculus
[13] = AlphaScreen signal interference compounds, dose response, artefact control for ARNT-TACC3 interaction inhibitor project, biochemical, luminescence, cherry-pick (AID 651705); assay type: functional;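 note: AlphaScreen bead proximity signal that flags compounds interfering with the detection technology; potency reflects signal decrease which marks the compound as an assay artifact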
[14] = target: T3, DNA repair protein RAD52 homolog (Homo sapiens, UniProt P43351); assay type: functional, biochemical
T3 sequence (P43351 whole entry): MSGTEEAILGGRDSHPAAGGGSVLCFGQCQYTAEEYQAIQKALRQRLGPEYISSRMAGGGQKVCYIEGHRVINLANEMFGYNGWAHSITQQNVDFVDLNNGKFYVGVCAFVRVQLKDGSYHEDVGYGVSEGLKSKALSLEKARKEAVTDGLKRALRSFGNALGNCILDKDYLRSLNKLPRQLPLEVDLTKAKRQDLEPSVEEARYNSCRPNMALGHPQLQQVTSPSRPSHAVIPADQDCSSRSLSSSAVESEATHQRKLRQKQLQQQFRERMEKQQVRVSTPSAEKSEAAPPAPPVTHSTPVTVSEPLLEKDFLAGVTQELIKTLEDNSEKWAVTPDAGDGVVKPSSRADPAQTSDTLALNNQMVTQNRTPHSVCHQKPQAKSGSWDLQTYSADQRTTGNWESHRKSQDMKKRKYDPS

[15] = target: T4, Caspase-6 (Homo sapiens, UniProt P55212); experiment: human caspase-6 inhibitors, dose response, biochemical, VEID-R110 fluorescence, cherry-pick (AID 720632)
T4 sequence (P55212 whole entry): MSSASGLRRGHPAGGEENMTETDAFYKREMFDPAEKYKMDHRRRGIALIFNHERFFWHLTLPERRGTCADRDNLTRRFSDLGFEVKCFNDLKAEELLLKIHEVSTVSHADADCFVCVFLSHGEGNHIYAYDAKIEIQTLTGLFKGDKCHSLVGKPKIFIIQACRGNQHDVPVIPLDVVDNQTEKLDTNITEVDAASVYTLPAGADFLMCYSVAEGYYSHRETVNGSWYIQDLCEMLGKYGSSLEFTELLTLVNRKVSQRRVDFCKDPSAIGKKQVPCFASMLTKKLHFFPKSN

[16] = target: Tyrosyl-DNA phosphodiesterase 2 (Homo sapiens, UniProt O95551); experiment: human TDP2 enzyme inhibitors, dose response, biochemical, epi absorbance, IC50 (AID 743297)
[17] = inhibitors of non-replicating M. tuberculosis, dose response, luciferase, dry powder (AID 651619); assay type: functional; conditions: Mycobacterium tuberculosis
[18] = cytotoxicity in HeLa cells, dose response, cytotoxicity control, cell-based, plate reader, dry powder (AID 651946); assay type: functional
[19] = inhibitors of non-replicating M. tuberculosis, dose response, luciferase, dry powder (AID 651620); assay type: functional; conditions: Mycobacterium tuberculosis
[20] = target: Endoplasmic reticulum aminopeptidase 1 (Homo sapiens, UniProt Q9NZ08); experiment: ERAP1 aminopeptidase inhibitors, dose response, biochemical, cherry-pick, set 2, plate reader (AID 743314)
[21] = target: T5, Oxysterols receptor LXR-beta (Homo sapiens, UniProt P55055); assay type: functional, cell-based;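 note: agonist activity at LXR measured by a cell-based luminescence readout across a dose range, run as a counterscreen for daf-12 agonists; HEK293 cells with Gal4-LXR fusion and GAL4-driven luciferase reporter; potency for activation of Gal4-LXR reporter so compounds are agonists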
T5 sequence (P55055 whole entry): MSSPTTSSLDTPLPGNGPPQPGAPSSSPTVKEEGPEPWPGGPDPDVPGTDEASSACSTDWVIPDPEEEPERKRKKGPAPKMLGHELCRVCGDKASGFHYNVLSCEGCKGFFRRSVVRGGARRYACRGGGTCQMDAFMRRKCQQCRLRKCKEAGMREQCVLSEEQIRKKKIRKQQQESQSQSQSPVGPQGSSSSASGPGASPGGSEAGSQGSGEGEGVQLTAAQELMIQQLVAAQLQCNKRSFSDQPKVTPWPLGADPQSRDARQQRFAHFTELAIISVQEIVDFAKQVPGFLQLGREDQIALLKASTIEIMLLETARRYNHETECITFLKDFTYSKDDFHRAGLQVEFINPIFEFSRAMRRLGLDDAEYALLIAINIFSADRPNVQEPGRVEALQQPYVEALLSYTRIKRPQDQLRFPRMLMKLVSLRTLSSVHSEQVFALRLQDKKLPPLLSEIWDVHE

[22] = inhibitors of firefly luciferase expression or activity, dose response, H4 neuroglioma cells, luminescence (AID 1990); assay type: functional, cell-based
[23] = Luminescence Cell-Based Dose Response HTS to Identify Inhibitors of 5'UTR Stem-Loop Driven Prion Protein mRNA Translation in H4 Neuroglioblastoma Cells. [Related pubchem assays: 1827 (Project Summary), 1813 (Primary HTS)]; assay type: functional
[24] = inhibitors of SNCA 5'UTR-driven reporter translation, confirmation, H4 neuroglioma cells, luminescence (AID 1988); assay type: functional, cell-based
[25] = target: T6, Ubiquitin-conjugating enzyme E2 N (Homo sapiens, UniProt P61088); assay type: functional;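 note: Dose-response confirmation in a TR-FRET assay detecting UBC13-driven polyubiquitin chain formation, inhibition measured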
T6 sequence (P61088 whole entry): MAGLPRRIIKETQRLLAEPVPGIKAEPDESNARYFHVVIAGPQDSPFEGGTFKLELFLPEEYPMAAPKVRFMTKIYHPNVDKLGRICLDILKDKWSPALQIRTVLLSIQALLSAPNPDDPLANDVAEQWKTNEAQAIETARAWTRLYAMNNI

[26] = HeLa cell cytotoxicity, dose response, cytotoxicity control for MgcRacGAP inhibitor project (AID 624300); assay type: functional
[27] = target: T7, Rac GTPase-activating protein 1 (Homo sapiens, UniProt Q9H0H5); experiment: MgcRacGAP GTPase-activating activity inhibitors, confirmation, biochemical, ADP Hunter fluorescence, primary and confirmatory (AID 624330); assay type: functional
T7 sequence (Q9H0H5 whole entry): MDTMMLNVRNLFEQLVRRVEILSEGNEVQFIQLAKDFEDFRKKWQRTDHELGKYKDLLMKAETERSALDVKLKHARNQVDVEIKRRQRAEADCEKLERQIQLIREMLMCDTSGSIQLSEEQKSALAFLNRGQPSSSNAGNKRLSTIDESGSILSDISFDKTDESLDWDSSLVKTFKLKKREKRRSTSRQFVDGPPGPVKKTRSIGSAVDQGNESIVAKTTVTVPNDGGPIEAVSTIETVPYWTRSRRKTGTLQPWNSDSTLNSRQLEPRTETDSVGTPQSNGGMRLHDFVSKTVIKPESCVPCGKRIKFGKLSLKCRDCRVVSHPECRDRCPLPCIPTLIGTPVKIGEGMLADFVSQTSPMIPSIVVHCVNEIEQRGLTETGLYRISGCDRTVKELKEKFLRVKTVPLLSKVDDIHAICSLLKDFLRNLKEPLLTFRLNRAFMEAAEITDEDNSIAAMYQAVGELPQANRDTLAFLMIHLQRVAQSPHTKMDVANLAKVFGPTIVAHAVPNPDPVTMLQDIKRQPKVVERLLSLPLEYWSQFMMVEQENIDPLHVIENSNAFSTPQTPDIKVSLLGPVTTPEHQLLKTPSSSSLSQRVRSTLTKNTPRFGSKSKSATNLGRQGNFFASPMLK

[28] = target: Paired box protein Pax-8 (Homo sapiens, UniProt Q06710); experiment: inhibitors of PAX8-driven TPO luciferase reporter, dose response, RMG-I cells, cherry-pick (AID 687027); assay type: functional, cell-based;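 note: luciferase reporter driven by Pax8 target thyroperoxidase promoter measured by SteadyGlo luminescence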
[29] = non-specific cell cytotoxicity, dose response, cytotoxicity control for PAX8 inhibitor project, plate reader, dry powder samples (AID 743021); assay type: functional, cell-based

Sequence of Paired box protein Pax-8 (Q06710 whole entry): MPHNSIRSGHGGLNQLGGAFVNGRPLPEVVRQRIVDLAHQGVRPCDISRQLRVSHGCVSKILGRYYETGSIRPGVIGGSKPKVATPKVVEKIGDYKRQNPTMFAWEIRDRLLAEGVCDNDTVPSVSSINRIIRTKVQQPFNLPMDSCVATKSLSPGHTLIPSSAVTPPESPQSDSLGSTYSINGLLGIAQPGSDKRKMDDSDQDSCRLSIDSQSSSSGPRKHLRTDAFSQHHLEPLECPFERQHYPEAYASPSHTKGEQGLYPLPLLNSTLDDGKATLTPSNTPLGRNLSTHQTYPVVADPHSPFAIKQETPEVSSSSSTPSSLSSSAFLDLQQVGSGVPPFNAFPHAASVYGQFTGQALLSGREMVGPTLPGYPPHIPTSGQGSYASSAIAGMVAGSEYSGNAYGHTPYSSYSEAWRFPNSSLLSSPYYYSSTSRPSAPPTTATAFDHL
Sequence of Tyrosyl-DNA phosphodiesterase 2 (O95551 whole entry): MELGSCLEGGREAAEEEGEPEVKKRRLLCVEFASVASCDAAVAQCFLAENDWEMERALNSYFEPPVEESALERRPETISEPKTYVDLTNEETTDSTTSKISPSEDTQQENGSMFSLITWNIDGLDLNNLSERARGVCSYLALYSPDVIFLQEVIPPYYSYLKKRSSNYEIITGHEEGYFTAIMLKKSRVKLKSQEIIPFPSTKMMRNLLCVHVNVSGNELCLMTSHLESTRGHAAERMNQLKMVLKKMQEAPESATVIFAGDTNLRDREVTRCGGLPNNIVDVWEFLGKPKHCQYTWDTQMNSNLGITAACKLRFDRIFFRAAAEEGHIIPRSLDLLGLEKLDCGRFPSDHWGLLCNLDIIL
Sequence of Endoplasmic reticulum aminopeptidase 1 (Q9NZ08 whole entry, the tested form may be a part): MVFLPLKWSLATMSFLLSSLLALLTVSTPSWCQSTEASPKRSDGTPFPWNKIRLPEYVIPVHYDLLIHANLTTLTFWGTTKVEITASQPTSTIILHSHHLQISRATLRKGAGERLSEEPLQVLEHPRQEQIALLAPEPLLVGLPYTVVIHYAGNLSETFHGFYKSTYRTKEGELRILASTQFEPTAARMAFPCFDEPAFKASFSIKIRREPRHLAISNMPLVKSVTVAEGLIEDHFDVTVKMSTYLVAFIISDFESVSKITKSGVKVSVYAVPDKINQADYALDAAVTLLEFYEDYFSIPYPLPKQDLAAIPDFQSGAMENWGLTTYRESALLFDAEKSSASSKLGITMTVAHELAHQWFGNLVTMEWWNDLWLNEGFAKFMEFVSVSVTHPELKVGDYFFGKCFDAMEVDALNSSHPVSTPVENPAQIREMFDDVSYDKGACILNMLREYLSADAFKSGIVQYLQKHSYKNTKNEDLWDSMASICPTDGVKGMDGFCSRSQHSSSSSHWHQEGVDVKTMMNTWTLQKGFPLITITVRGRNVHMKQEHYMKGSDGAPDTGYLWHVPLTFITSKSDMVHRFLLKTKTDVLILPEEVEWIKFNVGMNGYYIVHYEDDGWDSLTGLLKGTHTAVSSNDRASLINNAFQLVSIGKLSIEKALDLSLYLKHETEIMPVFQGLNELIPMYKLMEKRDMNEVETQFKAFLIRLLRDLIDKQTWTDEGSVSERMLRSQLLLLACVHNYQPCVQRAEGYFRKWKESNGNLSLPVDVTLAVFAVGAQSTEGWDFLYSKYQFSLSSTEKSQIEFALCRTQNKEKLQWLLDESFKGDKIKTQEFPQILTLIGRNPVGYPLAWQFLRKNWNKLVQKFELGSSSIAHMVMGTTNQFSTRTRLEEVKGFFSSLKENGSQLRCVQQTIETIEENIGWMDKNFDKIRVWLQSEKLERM
Sequence of Disintegrin and metalloproteinase domain-containing protein 17 (P78536 whole entry, the tested form may be a part): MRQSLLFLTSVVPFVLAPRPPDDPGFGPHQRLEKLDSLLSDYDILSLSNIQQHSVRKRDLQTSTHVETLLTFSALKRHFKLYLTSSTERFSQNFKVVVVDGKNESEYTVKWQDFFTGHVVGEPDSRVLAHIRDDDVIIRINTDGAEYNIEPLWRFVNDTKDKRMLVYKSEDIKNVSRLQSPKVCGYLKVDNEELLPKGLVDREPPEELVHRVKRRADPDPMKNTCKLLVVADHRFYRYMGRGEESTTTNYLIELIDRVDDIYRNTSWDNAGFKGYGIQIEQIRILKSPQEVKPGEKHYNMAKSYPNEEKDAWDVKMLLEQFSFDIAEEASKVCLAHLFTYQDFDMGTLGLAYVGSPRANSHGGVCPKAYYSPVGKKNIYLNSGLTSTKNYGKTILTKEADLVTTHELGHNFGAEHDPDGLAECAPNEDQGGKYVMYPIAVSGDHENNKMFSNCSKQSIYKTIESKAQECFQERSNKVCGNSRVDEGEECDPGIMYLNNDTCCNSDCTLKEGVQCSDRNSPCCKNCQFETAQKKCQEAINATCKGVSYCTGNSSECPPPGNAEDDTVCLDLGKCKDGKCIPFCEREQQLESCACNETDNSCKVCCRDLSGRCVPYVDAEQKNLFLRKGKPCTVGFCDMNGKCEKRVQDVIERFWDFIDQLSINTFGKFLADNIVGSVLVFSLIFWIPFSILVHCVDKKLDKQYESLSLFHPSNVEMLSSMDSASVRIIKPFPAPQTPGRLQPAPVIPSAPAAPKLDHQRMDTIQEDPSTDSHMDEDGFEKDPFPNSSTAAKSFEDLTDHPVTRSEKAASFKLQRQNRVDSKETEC

Structure (SMILES): O=C(c1cc2c(s1)CCCCCC2)N1CCC2(CC1)OCCO2
- IC50 [1]: > 69.5 µM (inactive)
- IC50 [2]: > 69.5 µM (inactive)

Structure (SMILES): CO[C@H]1CN(C)C(=O)c2cc(NC(=O)Nc3ccc(Cl)c(Cl)c3)ccc2OC[C@@H](C)NC[C@@H]1C
- AC50 [3]: 21.6 µM (active)
- AC50 [4]: 48 µM (active)
- AC50 [5]: > 52 µM (inactive)
- AC50 [6]: > 52 µM (inactive)

Structure (SMILES): COc1cc2c(cc1OC)-c1c3c(cc4c1[C@@H](C2)N(C)CC4)OCO3
- AC50 [7]: 26.7 µM (active)
- EC50 [8]: 952 nM (active)
- AC50 [9]: 2.09 µM (active)
- GI50 [10]: 7.08 µM (inactive)
- GI50 [11]: 6.1 µM (inactive)
- GI50 [12]: 8.53 µM (inactive)
- AC50 [13]: 116 µM (active)
- AC50 [14]: 1.18 µM (active)
- AC50 [15]: 5.63 µM (active)
- IC50 [16]: 7.83 µM (active)

Structure (SMILES): c1ccc(COc2nnc(-c3ccccc3)o2)cc1
- IC90 [17]: 8 µM (active)
- AC50 [18]: > 52 µM (inactive)
- IC90 [19]: 8 µM (active)

Structure (SMILES): COc1ccc2c3c([nH]c2c1)[C@H](CO)N(Cc1ccccc1OC)CC31CN(C)C1
- AC50 [20]: 14.9 µM (active)

Structure (SMILES): CCCCCc1nnc(NC(=O)C2=COCCO2)s1
- EC50 [21]: > 67.6 µM (inactive)

Structure (SMILES): COc1ccc2nc(C)cc(N/N=C/c3cccc(OC)c3O)c2c1
- EC50 [22]: > 120 µM (not active)
- EC50 [23]: > 120 µM (not active)
- EC50 [24]: 7.76 µM (active)
- IC50 [25]: > 20 µM (inactive)
- CC50 [26]: 23.4 µM (active)
- IC50 [27]: 51.8 µM (active)
- AC50 [28]: 12 µM (active)
- AC50 [29]: 32.4 µM (active)
